ChEMBL document CHEMBL1121935, “Syntheses and activities of antioxidant derivatives of retinoic acids” (1982)

Key:
Type in all cases: functional, Cricetulus griseus
Settings in all cases: Epithelial cell
Cricetinae gen. sp. [1] = assay: In vitro inhibitory activity tested for reverse keratinization of epithelial cells in hamster trachael organ assay at 10E-9 M concentration; (Activity culture/total culture 1/6)
Cricetinae gen. sp. [2] = assay: In vitro inhibitory activity tested for reverse keratinization of epithelial cells in hamster trachael organ assay at 10E-9 M concentration; (Activity culture/total culture 2/7)
Cricetinae gen. sp. [3] = assay: In vitro inhibitory activity tested for reverse keratinization of epithelial cells in hamster trachael organ assay at 10E-9 M concentration; (Activity culture/total culture 1/7)
Cricetinae gen. sp. [4] = assay: In vitro inhibitory activity tested for reverse keratinization of epithelial cells in hamster trachael organ assay at 10E-9 M concentration; (Activity culture/total culture 419/474)

**Q.** Which inhibition at 0.001 µM (Cricetinae gen. sp. [1]) does the source give for `CC1=C(/C=C/C(C)=C/C=C/C(C)=C/C(=O)Oc2ccc(O)c(C(C)(C)C)c2)C(C)(C)CCC1` here?
**A.** 16.7%

**Q.** `CCOc1ccc2c(c1)C(C)=CC(C)(C)N2C(=O)/C=C(C)/C=C/C=C(C)/C=C/C1=C(C)CCCC1(C)C` was tested. Which inhibition at 0.001 µM (Cricetinae gen. sp. [2]) did it give?
**A.** 28.6%

**Q.** How did the inhibition at 0.001 µM (Cricetinae gen. sp. [1]) turn out when `CC1=C(/C=C/C(C)=C/C=C/C(C)=C/C(=O)Oc2c(C)c(C)c3c(c2C)CC[C@@](C)(CCC[C@H](C)CCC[C@H](C)CCCC(C)C)O3)C(C)(C)CCC1` was run?
**A.** 16.7%

**Q.** `CC1=C(/C=C/C(C)=C/C=C/C(C)=C/C(=O)Oc2ccc(O)cc2C(C)(C)C)C(C)(C)CCC1` was tested. Which inhibition at 0.001 µM (Cricetinae gen. sp. [3]) did it give?
**A.** 14.3%

**Q.** `CC1=C(/C=C/C(C)=C/C=C/C(C)=C/C(=O)O)C(C)(C)CCC1` [TRETINOIN] was tested. Which inhibition at 0.001 µM (Cricetinae gen. sp. [4]) did it give?
**A.** 88.4%
